Counter-ions that a name gives are not always drawn. Like-named read-outs stand apart in the source and are kept apart here.
Tests used:
[1] = Intrinsic dissolution rate, rotating disk method (USP Chapter 1087); format: physicochemical; details: for Intrinsic dissolution rate: 50 rpm, average of three samples; for BCS solubility classification: pH 7.4 medium
Description: The intrinsic dissolution rate of the crystal and amorphous forms of ketamine pamoate salts was determined by using the intrinsic dissolution rotating disk method described in Chapter 1087 of the U.S. Pharmacopeia under the conditions of medium pH as 1.2, 4.5, 6.8 or 7.4, medium volume as 900 mL, rotating speed as 50 rpm, medium temperature as 37° C., and detection wavelength as 210 nm. The results were shown in Tables 7 and 8 and FIGS. 27 to 29.

[2] = system: DEX-induced depression-like animal model; experiment: Forced swimming test (FST) in dexamethasone (DEX)-induced depression-like animal model; format: in vivo, ICR mice; details: DEX-treated mice, SC, 120 mg/kg ketamine free-base; for Immobility time on FST: 1 day after administration
Description: (§1) FIG. 43 is a diagram illustrating the protocol of dexamethasone (DEX)-induced depression-like animal model to evaluate the antidepressant effects of ketamine HCl (KET), R, S-ketamine pamoate salt (KEP), S-ketamine pamoate salt (S-KEP), and R-ketamine pamoate salt (R-KEP). ICR mice were intraperitoneally injected with saline or DEX at postnatal day 1 to 3 (P1 to P3) with dose decrement of 0.5 mg/kg, 0.3 mg/kg, and 0.1 mg/kg, respectively. The drugs for each group or saline group were administered subcutaneously at day 35 (P35, i.e., dosing day 0, D0), and the forced swimming test (FST) were conducted every 10 days from dosing day 1 (D1, P36) to P98. Evaluation of sedation behavior was also conducted by sedation rating scale from the time immediately post injection to dosing day 28 after drug administration.
Depression-like animal model induced by dexamethasone (hereinafter abbreviated as DEX) was used to evaluate the antidepressant effects of ketamine HCl (KET), R, S-ketamine pamoate salt (KEP), S-ketamine pamoate salt (S-KEP), and R-ketamine pamoate salt (R-KEP) at equivalent dose (120 mg/kg ketamine free-base). According to literature, depressive-like behaviors were observed on juvenile mice and adult mice which neonatally exposed to DEX. Protocol of this example was shown in FIG. 43 and described in detail below.
Neonatal ICR mice were intraperitoneally injected with saline or DEX on postnatal day 1, 2, and 3 (P1 to P3) at doses of 0.5 mg/kg, 0.3 mg/kg, and 0.1 mg/kg, respectively. The mice received saline were called as Control group, and the mice received DEX were divided into the groups of KET, KEP, S-KEP, R-KEP and Saline (n=10 to 14 mice in each group). The mice of KET, KEP, S-KEP, and R-KEP groups were subcutaneously injected with KET formulation, the formulation AS04 comprising KEP, the formulation AS06 comprising S-KEP, and the formulation AS07 comprising R-KEP at postnatal day 35, respectively. The KET formulation was 20% (w/w) ketamine HCl dissolved in 0.9% saline. The formulations AS04, AS06 and AS07 were prepared in Example 18. Saline group mice were subcutaneously injected with equal volumes of 0.9% saline.
Antidepressant effects were evaluated by forced swimming test (FST), which performed about every 10 days from the first day (P36) to the 63rd day (P98) after drug administration. All groups of mice were trained for swimming before drug administration. During the FST, mice were individually placed into 5 L glass cylinders (height 27 cm, diameter 18 cm) filled with 4 L of water (23±1° C.). The total duration of immobility time during 5 minutes of FST was observed. Results were presented as mean±SEM. Student's t-test was analyzed with the Saline group (DEX-treated mouse group injected with saline) versus the other groups at each time point. *p<0.05, **p<0.01, ***p<0.001, and ****p<0.0001 indicate significant differences compared to the Saline group.

[3] = system: ICR mice; experiment: Sedation behavior by rodent sedation rating scale; format: in vivo; details: SC, 120 mg/kg ketamine free-base; for Sedation behavior (rodent sedation rating scale): immediately post administration to 28 days
Description: as §1
Furthermore, sedation behavior was also evaluated by rodent sedation rating scale (Table 28) immediately post drug administration to 28 days in this study.

[4] = Solubility test (USP guidance) in different pH media
[5] = in water; cited from earlier work
[6] = pH 4.5, 1% polysorbate 20 in medium, 37° C.
[7] = pH 6.8, 1% polysorbate 20 in medium, 37° C.
[8] = pH 7.4, 1% polysorbate 20 in medium, 37° C.

`CNC1(c2ccccc2Cl)CCCCC1=O.CNC1(c2ccccc2Cl)CCCCC1=O.O=C(O)c1cc2ccccc2c(Cc2c(O)c(C(=O)O)cc3ccccc23)c1O` [R,S-ketamine pamoate salt (Crystal, ratio 2:1)] [R, S-ketamine pamoate salt] gave an Intrinsic dissolution rate ([1]; pH 1.2, 37° C.) of 0.095 mg/min/cm^2, an Intrinsic dissolution rate [1, 6] of 0.005 mg/min/cm^2 and an Intrinsic dissolution rate [1, 7] of 0.011 mg/min/cm^2. The Intrinsic dissolution rate [1, 8] was 0.012 mg/min/cm^2, the “Antidepressant effects on FST after single injection” value (from here on “Antidepressant effects on FST”) [2] was “rapid-onset antidepressant effects” and the “Immobility time on FST” value [2] was “reduced the immobility time”. For the same compound, the “Sedation or other ketamine-related psychotomimetic effects and nervous system disorders post administration” value [3] was “would not occur”, the “Sedation behavior (rodent sedation rating scale)” value [3] was “normal behavior” and the Solubility ([4]; pH 1.2 medium, listed as R, S-ketamine pamoate salt) was 1680 µg/mL. It also gave a Solubility ([4]; pH 4.5 medium, listed as R,S-ketamine pamoate salt (Ratio 2:1) Crystal) of 1080 µg/mL, a Solubility ([4]; pH 6.8 medium) of 160 µg/mL and a Solubility ([4]; pH 7.4 medium, listed as R,S-ketamine pamoate salt (Ratio 2:1) Crystal) of 220 µg/mL.

For `CN[C@@]1(c2ccccc2Cl)CCCCC1=O` [R-ketamine pamoate salt (Amorphous, ratio 2:1)], the Intrinsic dissolution rate [1, 8] was 0.021 mg/min/cm^2, the BCS solubility classification [1] was “Low” and the Solubility ([4]; pH 1.2 medium, listed as R-ketamine pamoate salt (Ratio 2:1) Amorphous) was 1150 µg/mL. The Solubility ([4]; pH 4.5 medium, listed as R-ketamine pamoate salt (Ratio 2:1) Amorphous) was 990 µg/mL, the Solubility ([4]; pH 6.8 medium, listed as R-ketamine pamoate salt (Ratio 2:1) Amorphous) was 640 µg/mL and the Solubility ([4]; pH 7.4 medium, listed as R-ketamine pamoate salt (Ratio 2:1) Amorphous) was 950 µg/mL.

Work on `CNC1(c2ccccc2Cl)CCCCC1=O.O=C(O)c1cc2ccccc2c(Cc2c(O)c(C(=O)O)cc3ccccc23)c1O` [R- or S-ketamine pamoate salt] yielded a Solubility ([4]; pH 1.2 medium) of 720 µg/mL, a Solubility ([4]; pH 4.5 medium) of 450 µg/mL and a Solubility ([4]; pH 6.8 medium) of 70 µg/mL. The Solubility ([4]; pH 7.4 medium) was 80 µg/mL.

For `CNC1(c2ccccc2Cl)CCCCC1=O.CNC1(c2ccccc2Cl)CCCCC1=O.O=C(O)c1cc2ccccc2c(Cc2c(O)c(C(=O)O)cc3ccccc23)c1O` [R,S-ketamine pamoate salt (Amorphous, ratio 2:1)] [R, S-ketamine pamoate salt], the Intrinsic dissolution rate [1, 8] was 0.024 mg/min/cm^2, the BCS solubility classification [1] was “Low” and the Solubility ([4]; pH 1.2 medium, listed as R,S-ketamine pamoate salt (Ratio 2:1) Amorphous) was 1310 µg/mL. It also gave a Solubility ([4]; pH 4.5 medium, listed as R,S-ketamine pamoate salt (Ratio 2:1) Amorphous) of 870 µg/mL, a Solubility ([4]; pH 6.8 medium) of 160 µg/mL and a Solubility ([4]; pH 7.4 medium, listed as R,S-ketamine pamoate salt (Ratio 2:1) Amorphous) of 180 µg/mL.

With `CN[C@]1(c2ccccc2Cl)CCCCC1=O.Cl` [S-ketamine HCl, S-ketamine hydrochloride, reference compound] the Intrinsic dissolution rate [1, 8] was 2.248 mg/min/cm^2 and the BCS solubility classification [1] was “High”.

In the case of `CNC1(c2ccccc2Cl)CCCCC1=O` (stereo not drawn) [R,S-ketamine HCl, R, S-ketamine hydrochloride, reference compound], the Intrinsic dissolution rate ([1]; pH 1.2, 37° C.) is reported as 5.329 mg/min/cm^2, the Intrinsic dissolution rate [1, 6] is reported as 3.729 mg/min/cm^2 and the Intrinsic dissolution rate [1, 7] is reported as 2.918 mg/min/cm^2. The Intrinsic dissolution rate [1, 8] was 1.740 mg/min/cm^2, the “Antidepressant effects on FST” value [2] was “rapid-onset antidepressant effects” and the “Immobility time on FST” value [2] was “reduced the immobility time”. The “Time to full recovery from sedation-related behavior post administration” value [3] was 2 h, the “Sedation behavior (rodent sedation rating scale)” value [3] was “mild sedation-related behavior” and the Solubility [5] was over 200000 µg/mL.

For `CNC1(c2ccccc2Cl)CCCCC1=O.Cl` (stereo not drawn) [R-ketamine HCl, R-ketamine hydrochloride, reference compound], the Intrinsic dissolution rate [1, 8] was 2.356 mg/min/cm^2 and the BCS solubility classification [1] was “High”.

For `CN[C@@]1(c2ccccc2Cl)CCCCC1=O` [R-ketamine pamoate salt (Crystal, ratio 2:1)], the Intrinsic dissolution rate [1, 8] was 0.025 mg/min/cm^2, the BCS solubility classification [1] was “Low” and the “Antidepressant effects on FST” value [2] was “rapid-onset antidepressant effects”. For the same compound, the “Sedation or other ketamine-related psychotomimetic effects and nervous system disorders post administration” value [3] was “would not occur”, the Solubility ([4]; pH 1.2 medium, listed as R-ketamine pamoate salt (Ratio 2:1) Crystal) was 1090 µg/mL and the Solubility ([4]; pH 4.5 medium, listed as R-ketamine pamoate salt (Ratio 2:1) Crystal) was 1180 µg/mL. The Solubility ([4]; pH 6.8 medium, listed as R-ketamine pamoate salt (Ratio 2:1) Crystal) was 400 µg/mL and the Solubility ([4]; pH 7.4 medium, listed as R-ketamine pamoate salt (Ratio 2:1) Crystal) was 510 µg/mL.

For `CN[C@]1(c2ccccc2Cl)CCCCC1=O` [S-ketamine pamoate salt (Crystal, ratio 2:1)], the Intrinsic dissolution rate [1, 8] was 0.027 mg/min/cm^2, the BCS solubility classification [1] was “Low” and the “Antidepressant effects on FST” value [2] was “rapid-onset antidepressant effects”. The “Sedation or other ketamine-related psychotomimetic effects and nervous system disorders post administration” value [3] was “would not occur”, the Solubility ([4]; pH 1.2 medium, listed as S-ketamine pamoate salt (Ratio 2:1) Crystal) was 1240 µg/mL and the Solubility ([4]; pH 4.5 medium, listed as S-ketamine pamoate salt (Ratio 2:1) Crystal) was 1610 µg/mL. It also gave a Solubility ([4]; pH 6.8 medium, listed as S-ketamine pamoate salt (Ratio 2:1) Crystal) of 390 µg/mL and a Solubility ([4]; pH 7.4 medium, listed as S-ketamine pamoate salt (Ratio 2:1) Crystal) of 500 µg/mL.

In the case of `CN[C@]1(c2ccccc2Cl)CCCCC1=O` [S-ketamine pamoate salt (Amorphous, ratio 2:1)], the Intrinsic dissolution rate [1, 8] is reported as 0.026 mg/min/cm^2, the BCS solubility classification [1] is reported as “Low” and the Solubility ([4]; pH 1.2 medium, listed as S-ketamine pamoate salt (Ratio 2:1) Amorphous) is reported as 1000 µg/mL. For the same compound, the Solubility ([4]; pH 4.5 medium, listed as S-ketamine pamoate salt (Ratio 2:1) Amorphous) was 840 µg/mL, the Solubility ([4]; pH 6.8 medium, listed as S-ketamine pamoate salt (Ratio 2:1) Amorphous) was 480 µg/mL and the Solubility ([4]; pH 7.4 medium, listed as S-ketamine pamoate salt (Ratio 2:1) Amorphous) was 580 µg/mL.

Source: patent US20240099994A1, “LONG-ACTING INJECTABLE FORMULATIONS OF KETAMINE PAMOATE SALTS” (ALAR PHARMACEUTICAL INC., priority 2019, published 2024)
